Assay results as given in US20240041877A1, “DOSAGE REGIME AND METHOD FOR TREATING PULMONARY ARTERIAL HYPERTENSION” (Altavant Sciences GmbH, priority 2019, published 2024).

Assay: Study KAR5585-101 Part 1 (SAD): plasma pharmacokinetics after a single oral dose of KAR5585, fasting and fed (incl. dose proportionality and food effect)
Conditions: for AUC(0-inf) / AUC / concentration at 12 h / Cmax / AUC(0-t) / half-life / Tmax: human, plasma, po; for AUC: AUC0-tau
[1] = 400 mg, Geometric Mean, Cohort 3A (Fasting), 400 mg KAR5585 single oral dose, fasting
[2] = 400 mg, Geometric Mean, Cohort 3B (Fed), 400 mg KAR5585 single oral dose, fed
[3] = 400 mg, KAR5417 after 400 mg KAR5585 single oral, fasted, Cohort 3A, Geo. Mean
[4] = 400 mg, KAR5417 after 400 mg KAR5585 single oral, fasted, Cohort 3A, Mean
[5] = 400 mg, KAR5417 after 400 mg KAR5585 single oral, fed, Cohort 3B, Geo. Mean
[6] = 400 mg, KAR5417 after 400 mg KAR5585 single oral, fed, Cohort 3B, Mean
[7] = 700 mg, KAR5417 after 700 mg KAR5585 single oral, fasted, Cohort 4, Geo. Mean
[8] = 700 mg, KAR5417 after 700 mg KAR5585 single oral, fasted, Cohort 4, Mean
[9] = 1200 mg, KAR5417 after 1200 mg KAR5585 single oral, fasted, Cohort 5, Geo. Mean
[10] = 1200 mg, KAR5417 after 1200 mg KAR5585 single oral, fasted, Cohort 5, Mean
[11] = 2000 mg, KAR5417 after 2000 mg KAR5585 single oral, fasted, Cohort 6, Geo. Mean
[12] = 2000 mg, KAR5417 after 2000 mg KAR5585 single oral, fasted, Cohort 6, Mean

Experimental: Food effect was to be evaluated in Part 1, Period 2. Part 2 was permitted to begin before Part 1 was completed and, in each part, the data from each dose Cohort were to be reviewed for safety before the next dose Cohort was enrolled.
Part 1 had 6 Cohorts of 12 subjects each (for a total of 72 subjects) and Part 2 had 4 Cohorts of 12 subjects each (for a total of 48 subjects). In Part 1, the 12 subjects in Cohort 3 (400 mg)were studied twice, once under fasting conditions (Period 1) and once under fed conditions (Period 2) for food-effect assessment.
Pharmacokinetic data were to be summarized descriptively.

Structure (SMILES): Nc1nc(O[C@H](c2ccc(Cl)cc2-c2ccccc2)C(F)(F)F)cc(N2CCC3(CC2)CN[C@H](C(=O)O)C3)n1 [KAR5417, (S)-8-(2-amino-6-((R)-1-(5-chloro-[1,1T-biphenyl]-2-yl)-2,2,2-trifluoroeth-oxy)pyrimidin-4-yl)-2,8-diazaspiro[4.5]decane-3-carboxylic acid]
- AUC(0-inf) (400 mg, AUC0-inf, Geometric Mean, Cohort 3A (Fasting), 400 mg KAR5585 single oral dose, fasting): 3280 ng·h/mL
- AUC(0-inf) (400 mg, AUC0-inf, Geometric Mean, Cohort 3B (Fed), 400 mg KAR5585 single oral dose, fed): 6630 ng·h/mL
- AUC [1]: 3120 ng·h/mL
- AUC [2]: 6360 ng·h/mL
- AUC [3]: 3120 ng·h/mL
- AUC [4]: 3500 ng·h/mL
- AUC [5]: 6360 ng·h/mL
- AUC [6]: 6440 ng·h/mL
- AUC(0-inf) (400 mg, AUC0-∞, KAR5417 after 400 mg KAR5585 single oral, fasted, Cohort 3A, Geo. Mean): 3280 ng·h/mL
- AUC(0-inf) (400 mg, AUC0-∞, KAR5417 after 400 mg KAR5585 single oral, fasted, Cohort 3A, Mean): 3650 ng·h/mL
- AUC(0-inf) (400 mg, AUC0-∞, KAR5417 after 400 mg KAR5585 single oral, fed, Cohort 3B, Geo. Mean): 6630 ng·h/mL
- AUC(0-inf) (400 mg, AUC0-∞, KAR5417 after 400 mg KAR5585 single oral, fed, Cohort 3B, Mean): 6710 ng·h/mL
- concentration at 12 h (400 mg, C12, KAR5417 after 400 mg KAR5585 single oral, fasted, Cohort 3A, Geo. Mean): 75.2 ng/mL
- concentration at 12 h (400 mg, C12, KAR5417 after 400 mg KAR5585 single oral, fasted, Cohort 3A, Mean): 82.5 ng/mL
- concentration at 12 h (400 mg, C12, KAR5417 after 400 mg KAR5585 single oral, fed, Cohort 3B, Geo. Mean): 165 ng/mL
- concentration at 12 h (400 mg, C12, KAR5417 after 400 mg KAR5585 single oral, fed, Cohort 3B, Mean): 169 ng/mL
- Cmax [1]: 444 ng/mL
- Cmax [2]: 831 ng/mL
- Cmax [3]: 444 ng/mL
- Cmax [4]: 485 ng/mL
- Cmax [5]: 831 ng/mL
- Cmax [6]: 860 ng/mL
- AUC(0-t) (400 mg, Plasma AUC0-96, KAR5417 in plasma, 400 mg (fasted) KAR5585 single oral dose, mean): 3630 ng·h/mL
- AUC(0-t) (400 mg, Plasma AUC0-96, KAR5417 in plasma, 400 mg (fed) KAR5585 single oral dose, mean): 6590 ng·h/mL
- half-life (400 mg, t1/2, KAR5417 after 400 mg KAR5585 single oral, fasted, Cohort 3A, Geo. Mean): 9.29 h
- half-life (400 mg, t1/2, KAR5417 after 400 mg KAR5585 single oral, fasted, Cohort 3A, Mean): 11.3 h
- half-life (400 mg, t1/2, KAR5417 after 400 mg KAR5585 single oral, fed, Cohort 3B, Geo. Mean): 19.8 h
- half-life (400 mg, t1/2, KAR5417 after 400 mg KAR5585 single oral, fed, Cohort 3B, Mean): 20.5 h
- Tmax (400 mg, tmax, KAR5417 after 400 mg KAR5585 single oral, fasted, Cohort 3A, Median): 4 h
- Tmax (400 mg, tmax, KAR5417 after 400 mg KAR5585 single oral, fed, Cohort 3B, Median): 4 h
- AUC(0-t) (700 mg, AUC0-12, KAR5417 after 700 mg KAR5585 single oral, fasted, Cohort 4, Geo. Mean): 3050 ng·h/mL
- AUC(0-t) (700 mg, AUC0-12, KAR5417 after 700 mg KAR5585 single oral, fasted, Cohort 4, Mean): 4350 ng·h/mL
- AUC(0-t) (700 mg, AUC0-24, KAR5417 after 700 mg KAR5585 single oral, fasted, Cohort 4, Geo. Mean): 3720 ng·h/mL
- AUC(0-t) (700 mg, AUC0-24, KAR5417 after 700 mg KAR5585 single oral, fasted, Cohort 4, Mean): 5310 ng·h/mL
- AUC [7]: 3870 ng·h/mL
- AUC [8]: 5840 ng·h/mL
- AUC(0-inf) (700 mg, AUC0-∞, KAR5417 after 700 mg KAR5585 single oral, fasted, Cohort 4, Geo. Mean): 4170 ng·h/mL
- AUC(0-inf) (700 mg, AUC0-∞, KAR5417 after 700 mg KAR5585 single oral, fasted, Cohort 4, Mean): 6020 ng·h/mL
- concentration at 12 h (700 mg, C12, KAR5417 after 700 mg KAR5585 single oral, fasted, Cohort 4, Geo. Mean): 93.8 ng/mL
- concentration at 12 h (700 mg, C12, KAR5417 after 700 mg KAR5585 single oral, fasted, Cohort 4, Mean): 144 ng/mL
- Cmax [7]: 544 ng/mL
- Cmax [8]: 778 ng/mL
- AUC(0-t) (700 mg, Plasma AUC0-96, KAR5417 in plasma, 700 mg KAR5585 single oral dose, mean): 5990 ng·h/mL
- half-life (700 mg, t1/2, KAR5417 after 700 mg KAR5585 single oral, fasted, Cohort 4, Mean): 13.5 h
- Tmax (700 mg, tmax, KAR5417 after 700 mg KAR5585 single oral, fasted, Cohort 4, Median): 4 h
- AUC(0-t) (1200 mg, AUC0-12, KAR5417 after 1200 mg KAR5585 single oral, fasted, Cohort 5, Geo. Mean): 4580 ng·h/mL
- AUC(0-t) (1200 mg, AUC0-12, KAR5417 after 1200 mg KAR5585 single oral, fasted, Cohort 5, Mean): 5350 ng·h/mL
- AUC(0-t) (1200 mg, AUC0-24, KAR5417 after 1200 mg KAR5585 single oral, fasted, Cohort 5, Geo. Mean): 5810 ng·h/mL
- AUC(0-t) (1200 mg, AUC0-24, KAR5417 after 1200 mg KAR5585 single oral, fasted, Cohort 5, Mean): 6790 ng·h/mL
- AUC [9]: 6580 ng·h/mL
- AUC [10]: 7700 ng·h/mL
- AUC(0-inf) (1200 mg, AUC0-∞, KAR5417 after 1200 mg KAR5585 single oral, fasted, Cohort 5, Geo. Mean): 6880 ng·h/mL
- AUC(0-inf) (1200 mg, AUC0-∞, KAR5417 after 1200 mg KAR5585 single oral, fasted, Cohort 5, Mean): 7970 ng·h/mL
- concentration at 12 h (1200 mg, C12, KAR5417 after 1200 mg KAR5585 single oral, fasted, Cohort 5, Geo. Mean): 175 ng/mL
- concentration at 12 h (1200 mg, C12, KAR5417 after 1200 mg KAR5585 single oral, fasted, Cohort 5, Mean): 213 ng/mL
- Cmax [9]: 764 ng/mL
- Cmax [10]: 896 ng/mL
- AUC(0-t) (1200 mg, Plasma AUC0-96, KAR5417 in plasma, 1200 mg KAR5585 single oral dose, mean): 7910 ng·h/mL
- half-life (1200 mg, t1/2, KAR5417 after 1200 mg KAR5585 single oral, fasted, Cohort 5, Geo. Mean): 14 h
- half-life (1200 mg, t1/2, KAR5417 after 1200 mg KAR5585 single oral, fasted, Cohort 5, Mean): 14.9 h
- Tmax (1200 mg, tmax, KAR5417 after 1200 mg KAR5585 single oral, fasted, Cohort 5, Median): 6 h
- AUC(0-t) (2000 mg, AUC0-12, KAR5417 after 2000 mg KAR5585 single oral, fasted, Cohort 6, Geo. Mean): 6550 ng·h/mL
- AUC(0-t) (2000 mg, AUC0-12, KAR5417 after 2000 mg KAR5585 single oral, fasted, Cohort 6, Mean): 6910 ng·h/mL
- AUC(0-t) (2000 mg, AUC0-24, KAR5417 after 2000 mg KAR5585 single oral, fasted, Cohort 6, Geo. Mean): 8520 ng·h/mL
- AUC(0-t) (2000 mg, AUC0-24, KAR5417 after 2000 mg KAR5585 single oral, fasted, Cohort 6, Mean): 9080 ng·h/mL
- AUC [11]: 9880 ng·h/mL
- AUC [12]: 10600 ng·h/mL
- AUC(0-inf) (2000 mg, AUC0-∞, KAR5417 after 2000 mg KAR5585 single oral, fasted, Cohort 6, Geo. Mean): 10200 ng·h/mL
- AUC(0-inf) (2000 mg, AUC0-∞, KAR5417 after 2000 mg KAR5585 single oral, fasted, Cohort 6, Mean): 10900 ng·h/mL
- concentration at 12 h (2000 mg, C12, KAR5417 after 2000 mg KAR5585 single oral, fasted, Cohort 6, Geo. Mean): 280 ng/mL
- concentration at 12 h (2000 mg, C12, KAR5417 after 2000 mg KAR5585 single oral, fasted, Cohort 6, Mean): 354 ng/mL
- Cmax [11]: 1030 ng/mL
- Cmax [12]: 1080 ng/mL
- AUC(0-t) (2000 mg, Plasma AUC0-96, KAR5417 in plasma, 2000 mg KAR5585 single oral dose, mean): 10700 ng·h/mL
- half-life (2000 mg, t1/2, KAR5417 after 2000 mg KAR5585 single oral, fasted, Cohort 6, Geo. Mean): 22.1 h
- half-life (2000 mg, t1/2, KAR5417 after 2000 mg KAR5585 single oral, fasted, Cohort 6, Mean): 22.6 h
- Tmax (2000 mg, tmax, KAR5417 after 2000 mg KAR5585 single oral, fasted, Cohort 6, Median): 5 h
- Tmax (median tmax, range across cohorts, single oral 100-2000 mg KAR5585, fasting cohorts): 3 to 6 h
- time by which all subjects had measurable concentrations (postdose, single oral KAR5585): ≤ 0.25 h
- time concentrations remained above the LLOQ (single 100 mg KAR5585, fasting): up to 12 hours
- time concentrations remained above the LLOQ (single 200 mg KAR5585, fasting): ≤ 24 h
- time concentrations remained above the LLOQ / measurable (single 400 mg KAR5585, fasting): ≤ 36 h
- time concentrations remained above the LLOQ (single 700 mg KAR5585, fasting): ≤ 48 h
- time concentrations remained above the LLOQ (single 1200 mg KAR5585, fasting): ≤ 48 h
- time concentrations remained above the LLOQ (single 2000 mg KAR5585, fasting): ≤ 72 h
- dose proportionality of AUC0-inf and Cmax (power model, 95% CI of slope) (single dose range 100 to 2000 mg KAR5585, fasting): dose proportionality was concluded
- plasma concentrations of KAR5417 relative to plasma concentrations of KAR5585 (single oral KAR5585, fasting): approximately 10 fold
